Results on 25 molecules are retold here after ChEMBL document CHEMBL4251602, “Synthesis and biological evaluation of novel 1-(aryl-aldehyde-oxime)uracil derivatives as a new class of thymidine phosphorylase inhibitors” (Eur J Med Chem, 2018).

Data set [1] can be described thus: Stability in water assessed as parent pure compound remaining at 1 mg measured within 10 days by HPLC analysis (reference value: 95%). The data set is classed as physicochemical. Conditions: read-out: Stability.
The subject of data set [2] is NIH3T3. Put plainly: Cytotoxicity against mouse 3T3 cells at 50 uM by SRB assay. Format: cell-based. Conditions: nih3t3, 50 µM. A general note: In SRB staining, fixed cells bind dye roughly in proportion to their protein.
Data set [3] is described as follows: Stability in bovine serum assessed as parent pure compound remaining at 1 mg measured within 10 days by HPLC analysis. Conditions: cattle, 240 h. Format: ADME, cell-free, Bos taurus.
For a further data set, the target named is T1, Thymidine phosphorylase (Homo sapiens, UniProt P19971).
T1 sequence (P19971 whole entry): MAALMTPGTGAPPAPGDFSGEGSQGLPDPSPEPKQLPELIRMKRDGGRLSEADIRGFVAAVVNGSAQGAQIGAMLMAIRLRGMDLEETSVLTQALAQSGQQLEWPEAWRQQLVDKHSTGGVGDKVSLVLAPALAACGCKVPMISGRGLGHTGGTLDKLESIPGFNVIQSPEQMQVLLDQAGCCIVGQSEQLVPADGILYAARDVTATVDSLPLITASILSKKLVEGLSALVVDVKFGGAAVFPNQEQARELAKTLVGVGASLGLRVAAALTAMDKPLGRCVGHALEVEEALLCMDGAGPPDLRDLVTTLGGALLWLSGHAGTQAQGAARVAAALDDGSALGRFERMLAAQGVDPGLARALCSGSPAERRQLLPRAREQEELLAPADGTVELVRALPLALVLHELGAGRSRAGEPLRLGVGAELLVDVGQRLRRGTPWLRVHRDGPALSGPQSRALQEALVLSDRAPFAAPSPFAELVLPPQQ

Data set [4] deals with NIH3T3. Description: Cytotoxicity against mouse 3T3 cells by SRB assay. The data set is classed as functional, cell-based.
Substrate in data set [5]: Cc1cc(=O)[nH]c(=O)n1/C(=N\O)c1ccc(Cl)c(Cl)c1
Conditions: Homo sapiens.

For the molecule `Cc1cc(=O)[nH]c(=O)n1/C(=N\O)c1ccc(Cl)c(Cl)c1`, in data set [1], the remaining at 240 h was found to be 87%. Also, the Activity entry with NIH3T3 [2] is recorded as “Non-Toxic”. In addition, the Stability entry in data set [3] is reported as “Stable”. At Thymidine phosphorylase, the IC50 amounted to 0.12 µM. Turning to `C[C@@H]1C[C@@H]([C@H](O)CC2CC(=O)NC(=O)C2)C(=O)[C@@H](C)C1` [CYCLOHEXIMIDE], half-maximal inhibition in the data set with NIH3T3 [4] (IC50) was put at 0.3 µM. For the molecule `COc1ccc(/C(=N\O)n2cc(I)c(=O)[nH]c2=O)cc1`, on Thymidine phosphorylase, the IC50 worked out at 25.2 µM. `Cc1ccc(/C(=N\O)n2cc(I)c(=O)[nH]c2=O)cc1` showed a 50% inhibitory concentration (IC50) against Thymidine phosphorylase of 22.5 µM.

Consider `Cc1cc(=O)[nH]c(=O)n1/C(=N\O)c1ccccc1F`, for which the midpoint of inhibition at Thymidine phosphorylase, the IC50, lay at 49.3 µM. Same read-out and setting: in the case of `O=c1[nH]c(=O)n(/C(=N/O)c2ccc(Cl)cc2)cc1I` it was 15.6 µM; in that of `O=c1[nH]c(=O)n(/C(=N/O)c2ccccc2)cc1I`, 37.3 µM.

`Cc1ccc(/C(=N/O)n2c(C)cc(=O)[nH]c2=O)cc1`: in the data set with NIH3T3 [2], the Activity entry was “Non-Toxic”. On Thymidine phosphorylase, this molecule showed an IC50 of 7.2 µM. Taken in the same sequence, the figures for `Cc1cc(=O)[nH]c(=O)n1/C(=N\O)c1ccc(Cl)cc1` were “Non-Toxic” and 1.4 µM. `Cc1cc(=O)[nH]c(=O)n1/C(=N\O)c1cccs1` showed an IC50 against Thymidine phosphorylase of 39.9 µM. The molecule `Cc1cc(=O)[nH]c(=O)n1/C(=N\O)c1ccc(F)cc1` yielded an IC50 at Thymidine phosphorylase of 44.1 µM. The IC50 values of the last two molecules are within 1.5-fold of each other. Same read-out and setting: in the case of `O=c1[nH]c(=O)n(/C(=N/O)c2ccc(F)cc2)cc1I` it was 41.3 µM. In the case of `Cc1cc(=O)[nH]c(=O)n1/C(=N\O)c1ccccc1`, the IC50 on Thymidine phosphorylase worked out at 21.4 µM. In the case of `Cc1cc(=O)[nH]c(=O)n1C(=O)c1ccccc1`, it took 92.4 µM to reach half-maximal inhibition on Thymidine phosphorylase (IC50). This IC50 lies about 4.3-fold higher than the previous one.

For `CCc1ccc(/C(=N\O)n2cc(I)c(=O)[nH]c2=O)cc1`, the midpoint of inhibition against Thymidine phosphorylase, the IC50, lay at 10.7 µM. Same read-out and setting: the same measure for `Cc1cc(=O)[nH]c(=O)n1/C(=N\O)c1ccc(Br)cc1`: 2.7 µM. The same measure, in the same setting: in the case of `CO/N=C(\c1ccccc1)n1c(C)cc(=O)[nH]c1=O` it was 85.6 µM; in that of `Cc1cc(=O)[nH]c(=O)n1/C(=N\O)c1cccc(F)c1`, 41.2 µM; in that of `Cc1cccc(/C(=N/O)n2c(C)cc(=O)[nH]c2=O)c1`, 15.9 µM. Same read-out and setting: in the case of `COc1cccc(/C(=N\O)n2cc(I)c(=O)[nH]c2=O)c1` it was 33.4 µM; in that of `COc1ccc(/C(=N/O)n2c(C)cc(=O)[nH]c2=O)cc1`, 16.5 µM. On Thymidine phosphorylase, `O=c1[nH]c(=O)n(/C(=N/O)c2ccccc2F)cc1I` gave an IC50 of 53.7 µM.

`CCc1ccc(/C(=N/O)n2c(C)cc(=O)[nH]c2=O)cc1`: the Activity result with NIH3T3 [2] is recorded as “Non-Toxic”. This molecule also had an IC50 at Thymidine phosphorylase of 3.4 µM. The molecule `COc1cccc(/C(=N/O)n2c(C)cc(=O)[nH]c2=O)c1` had an IC50 against Thymidine phosphorylase of 25.1 µM.

B1: Thymidine phosphorylase (Homo sapiens), P19971 (protein)
chain: T1 sequence (P19971 whole entry)
Turning to B1, in data set [5], the Km was determined as 2000 µM.

By IC50 is commonly meant the point on the concentration scale where inhibition reaches its midpoint. Higher therefore signals lower potency. As usually defined, the Km is the substrate concentration at which the rate is half of its maximum.
